Results as given in patent US20250237650A1 (priority 2021, published 2025).

Experiments:
SARS-CoV-2 spike [1] = tested on: SARS-CoV-2 spike
SARS-CoV-2 spike [2] = assay type: binding; conditions: for Kd: pH 7.4
[3] = target: Env (monomeric gp140; Clade CRF07_BC); assay: BLI of HS/HEP to monomeric Env; set-up: species or system HIV-1; conditions: steady-state analysis of BLI data; read-out: Estimated binding affinity (KD)
[4] = target: trimeric Env (Group M; Clade C); assay: BLI of HS to trimeric Env; set-up: species or system HIV-1; conditions: read-out: estimated binding affinity
[5] = tested on: variants of Env (trimeric gp140; Clade C, B, A); assay: BLI of HS to variants of trimeric Env; assay type: binding, HIV-1

| Substance | LFSA signal intensity of capture probes (SARS-CoV-2 spike [1]) | Kd (SARS-CoV-2 spike [2]) [nM] | Kd [3] [nM] | also measured |
| --- | --- | --- | --- | --- |
| heparin [HEP27, reference compound] | lower signal intensity | – | – | – |
| heparan sulfate [HS15] | highest signal intensity | – | – | – |
| chondroitin sulfate [CS25] | – | 17.9 | – | – |
| heparin [reference compound] | – | – | 209 | HEP binding affinity to spike as ionic strength increased (SARS-CoV-2 spike [2]): dramatically decreased |
| heparan sulfate [HS] | – | – | 142 | Kd [4]: 28 nM; Binding affinity of HS to all the subtypes [5]: in the nanomolar range |
| heparin [HEP15, reference compound] | – | 215 | – | – |
